Structures are written as SMILES. A value given as a limit tells only on which side of the number the result lay.

For 54 compounds, IC50 results are on record in patent US6689883B1, “Substituted pyridines and pyridazines with angiogenesis inhibiting activity” (Bayer Pharmaceuticals Corporation, priority 1999, dated 2004).

For this assay, the target named is T1, cytosolic kinase domain of KDR kinase (Homo sapiens, UniProt P35968).
T1 construct: The cytosolic kinase domain of KDR kinase was expressed as a 6His fusion protein in Sf9 insect cells; 6His; made in house; host or cells: Sf9 insect cells
T1 sequence (P35968 834-1162 limits assumed): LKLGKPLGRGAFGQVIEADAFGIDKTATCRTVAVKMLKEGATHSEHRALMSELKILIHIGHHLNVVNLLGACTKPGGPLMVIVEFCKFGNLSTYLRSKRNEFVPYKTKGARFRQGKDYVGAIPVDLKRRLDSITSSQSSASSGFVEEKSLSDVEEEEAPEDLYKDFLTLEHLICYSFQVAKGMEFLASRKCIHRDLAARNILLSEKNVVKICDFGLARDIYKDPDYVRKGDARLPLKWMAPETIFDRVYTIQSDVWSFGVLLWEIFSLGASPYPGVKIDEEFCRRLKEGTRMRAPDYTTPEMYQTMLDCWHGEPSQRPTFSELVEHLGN
Kind of assay: KDR Assay (ELISA, poly(Glu4;Tyr1) phosphorylation). The assay is classed as biochemical. The conditions noted are these: 3.3 μM ATP, 60 minutes at room temperature. As for the experimental part:
The cytosolic kinase domain of KDR kinase was expressed as a 6His fusion protein in Sf9 insect cells. The KDR kinase domain fusion protein was purified over a Ni++ chelating column. Ninety-six well ELISA plates were coated with 5 μg poly(Glu4;Tyr1) (Sigma Chemical Co., St Louis, Mo.) in 100 μl HEPES buffer (20 mM HEPES, pH 7.5, 150 mM NaCl, 0.02% Thimerosal) at 4° overnight. Before use, the plate was washed with HEPES, NaCl buffer and the plates were blocked with 1% BSA, 0.1% Tween 20 in HEPES, NaCl buffer.
Test compounds were serially diluted in 100% DMSO from 4 mM to 0.12 μM in half-log dilutions. These dilutions were further diluted twenty fold in H2O to obtain compound solutions in 5% DMSO. Following loading of the assay plate with 85 μl of assay buffer (20 mM HEPES, pH 7.5, 100 mM KCl, 10 mM MgCl2, 3 mM MnCl2, 0.05% glycerol, 0.005% Triton X-100, 1 mM-mercaptoethanol, with or without 3.3 μM ATP), 5 μl of the diluted compounds were added to a final assay volume of 100 μl. Final concentrations were between 10 μM, and 0.3 nM in 0.25% DMSO. The assay was initiated by the addition of 10 μl (30 ng) of KDR kinase domain.
The assay was incubated with test compound or vehicle alone with gentle agitation at room temperature for 60 minutes. The wells were washed and phosphotyrosines (PY) were probed with an anti-phosphotyrosine (PY), mAb clone 4G10 (Upstate Biotechnology, Lake Placid, N.Y.). PY/anti-PY complexes were detected with an anti-mouse IgG/HRP conjugate (Amersham International plc, Buckinghamshire, England). Phosphotyrosine was quantitated by incubating with 100 μl 3,3′,5,5′tetramethylbenzidine solution (Kirkegaard and Perry, TMB Microwell 1 Component peroxidase substrate). Color development was arrested by the addition of 100 μl 1% HCl-based stop solution (Kirkegaard and Perry, TMB 1 Component Stop Solution).
Optical densities were determined spectrophotometrically at 450 nm in a 96-well plate reader, SpectraMax 250 (Molecular Devices). Background (no ATP in assay) OD values were subtracted from all ODs and the percent inhibition was calculated according to the equation: [formula]
Turning to `CNC(=O)c1cc(COc2nnc(Nc3cc(C)cc(C)c3)c3ccoc23)ccn1` [Example 54], the IC50 is no more than 100 nM.

Compound `CNC(=O)c1cc(COc2nnc(Nc3ccc4c(c3)OCO4)c3ccsc23)ccn1` [Example 74] gave an IC50 of no more than 100 nM.

As to `Clc1ccc(Nc2ncc(Sc3ccncc3)c3ccccc23)cc1` [Example 1, 1-(4-chlorophenylamino)-4-(4-pyridylthio)isoquinoline], the IC50 was no more than 100 nM.

The compound `CNC(=O)c1cc(COc2nnc(Nc3ccc(OC(F)(F)F)cc3)c3ccsc23)ccn1` [Example 70] showed an IC50 of no more than 100 nM.

Turning to `c1nc2c(Nc3ccc4ncsc4c3)nnc(Nc3ccc4ncsc4c3)c2[nH]1` [Example 33], the IC50 was greater than 1000 nM.

`c1nc2c(Nc3ccc4[nH]ncc4c3)nnc(Nc3ccc4[nH]ncc4c3)c2[nH]1` [Example 32] registered an IC50 greater than 1000 nM.

Compound `CNC(=O)c1cc(COc2nnc(Nc3cccc(OC)c3)c3ccoc23)ccn1` [Example 51] showed an IC50 of no more than 100 nM.

As for `Brc1ccc2c(c1)CCN2c1nnc(Nc2ccc3ncsc3c2)c2ccccc12` [Example 97], the IC50 was no more than 100 nM.

In the case of `CNC(=O)c1cc(COc2nnc(Nc3ccc(C(F)(F)F)cc3)c3ccoc23)ccn1` [Example 42], the IC50 is no more than 100 nM.

The compound `CN(C)C(=O)c1cc(COc2nnc(Nc3ccc(Cl)cc3)c3ccoc23)ccn1` [Example 81] showed an IC50 greater than 1000 nM.

For `CNC(=O)c1cc(COc2nnc(Nc3ccc(OC)cc3)c3ccsc23)ccn1` [Example 69], the IC50 was no more than 100 nM.

Turning to `NC(=O)c1cc(COc2nnc(Nc3ccc(Cl)cc3)c3ccoc23)ccn1` [Example 16, 4-(4-chlorophenylamino)-7-(2-aminocarbonyl-4-pyridylmethoxy)furo-[2,3-d]pyridazine], the concentration for half-maximal inhibition (IC50) is no more than 100 nM.

Turning to `COc1ccc(Nc2nnc(OCc3ccncc3)c3occc23)cc1` [Example 56], the IC50 was no more than 100 nM.

Take `c1cc2c(Nc3ccc4nn[nH]c4c3)nnc(Nc3ccc4nn[nH]c4c3)c2s1` [Example 26]: the IC50 is greater than 1000 nM.

`c1cc2c(Nc3ccc4nn[nH]c4c3)nnc(Nc3ccc4nn[nH]c4c3)c2o1` [Example 29] gave an IC50 greater than 1000 nM.

On to `CNC(=O)c1cc(COc2nnc(Nc3ccc(C)cc3)c3ccoc23)ccn1` [Example 39], for which the IC50 is no more than 100 nM.

The compound `O=C(NC1CC1)c1cc(COc2nnc(Nc3ccc(Cl)cc3)c3ccoc23)ccn1` [Example 82B] displayed a concentration for half-maximal inhibition (IC50) of no more than 100 nM.

Compound `CNC(=O)c1cc(COc2nnc(Nc3ccc(OC)c(Cl)c3)c3ccoc23)ccn1` [Example 44] gave a concentration for half-maximal inhibition (IC50) of no more than 100 nM.

As to `CNC(=O)c1cc(COc2nnc(Nc3ccc4c(c3)CCC4)c3ccoc23)ccn1` [Example 49], the IC50 is no more than 100 nM.

Take `O=C(NCCO)c1cc(COc2nnc(Nc3ccc(Cl)cc3)c3ccoc23)ccn1` [Example 82C]: the IC50 is no more than 100 nM.

In turn, `Cc1ccc(Nc2ncc(Cc3ccncc3)c3ccccc23)cc1F` [Example 7, 1-(3-fluoro-4-methylphenylamino)-4-(4-pyridylmethyl)-isoquinoline] came in with an IC50 of 100 to 1000 nM.

The compound `CNC(=O)c1cc(COc2nnc(Nc3cccc(C)c3)c3ccoc23)ccn1` [Example 40] registered a concentration for half-maximal inhibition (IC50) of no more than 100 nM.

In turn, `CNC(=O)c1cc(COc2nnc(Nc3ccc(OC)cc3)c3ccoc23)ccn1` [Example 20, 4-(4-methoxyphenylamino)-7-(2-methylaminocarbonyl-4-pyridylmethoxy)furo-[2,3-d]pyridazine] returned an IC50 of no more than 100 nM.

As for `CNC(=O)c1cc(COc2nnc(Nc3ccc(F)cc3)c3ccoc23)ccn1` [Example 37], the IC50 is no more than 100 nM.

As for `CNC(=O)c1cc(COc2nnc(Nc3ccc4c(c3)OCO4)c3ccoc23)ccn1` [Example 52], the IC50 is no more than 100 nM.

For the compound `CNC(=O)c1cc(COc2nnc(Nc3ccc(C)c(OC)c3)c3ccoc23)ccn1` [Example 60], the concentration for half-maximal inhibition (IC50) was no more than 100 nM.

Consider `CNC(=O)c1cc(COc2nnc(Nc3ccc(Br)cc3)c3ccoc23)ccn1` [Example 38], for which the IC50 was no more than 100 nM.

In turn, `COc1ccc(Nc2nnc(OCc3ccnc(C(N)=O)c3)c3occc23)cc1` [Example 22, 4-(4-methoxyphenylamino)-7-(2-aminocarbonyl4-pyridylmethoxy)furo-[2,3-d]pyridazine] came in with an IC50 of no more than 100 nM.

With `Cc1ccc(Nc2nnc(Nc3ccc4ncsc4c3)c3sccc23)c(C)c1` [Example 78], the IC50 was no more than 100 nM.

Compound `CNC(=O)c1cc(COc2nnc(Nc3ccc4c(c3)CCO4)c3ccoc23)ccn1` [Example 65] had an IC50 of no more than 100 nM.

Consider `CNC(=O)c1cc(COc2nnc(Nc3ccc(Cl)c(Cl)c3)c3ccoc23)ccn1` [Example 53], for which the concentration for half-maximal inhibition (IC50) was no more than 100 nM.

In turn, `CNC(=O)c1cc(Cc2cnc(Nc3ccc(Cl)cc3)c3ccccc23)ccn1` [Example 13, 1-(4-chlorophenylamino)-4-(2-methylaminocarbonyl-4-pyridylmethyl)isoquinoline] had an IC50 of no more than 100 nM.

The compound `Clc1ccc(Nc2ncc(Cc3ccncc3)c3ccccc23)cc1` [Example 4, 1-(4-chlorophenylamino)-4-(4-pyridylmethyl)isoquinoline] returned a half-inhibitory concentration (IC50) of no more than 100 nM.

The compound `NC(=O)c1cc(Cc2cnc(Nc3ccc(Cl)cc3)c3ccccc23)ccn1` [Example 12, 1-(4-chlorophenylamino)-4-(2-aminocarbonyl-4-pyridylmethyl)isoquinoline] had an IC50 of no more than 100 nM.

`c1cc2c(Nc3ccc4[nH]ncc4c3)nnc(Nc3ccc4[nH]ncc4c3)c2o1` [Example 30]: the IC50 was greater than 1000 nM.

Compound `CNC(=O)c1cc(COc2nnc(Nc3ccccc3)c3ccoc23)ccn1` [Example 59] registered an IC50 of no more than 100 nM.

`CNC(=O)c1cc(COc2nnc(Nc3ccc(F)c(F)c3)c3ccoc23)ccn1` [Example 47] registered an IC50 of no more than 100 nM.

Consider `CNC(=O)c1cc(COc2nnc(Nc3ccc4c(c3)CCO4)c3ccsc23)ccn1` [Example 66], for which the IC50 is no more than 100 nM.

With `CNC(=O)c1cc(COc2nnc(Nc3ccc4sc(C)nc4c3)c3ccoc23)ccn1` [Example 62], the IC50 is no more than 100 nM.

Consider `c1nc2c(Nc3ccc4nn[nH]c4c3)nnc(Nc3ccc4nn[nH]c4c3)c2[nH]1` [Example 31], for which the IC50 was greater than 1000 nM.

In turn, `CCNC(=O)c1cc(COc2nnc(Nc3ccc(Cl)cc3)c3ccoc23)ccn1` [Example 82D] gave an IC50 of no more than 100 nM.

In turn, `c1nc2ccc(Nc3nnc(Nc4ccc5ncsc5c4)c4sccc34)cc2s1` [Example 75] registered an IC50 of no more than 100 nM.

`CNC(=O)c1cc(COc2nnc(Nc3ccc(C(F)(F)F)cc3)c3ccsc23)ccn1` [Example 71] came in with an IC50 of no more than 100 nM.

In the case of `CNC(=O)c1cc(COc2nnc(Nc3ccc(Br)cc3)c3ccsc23)ccn1` [Example 72], the IC50 is no more than 100 nM.

In turn, `CNC(=O)c1cc(COc2nnc(Nc3cccc(C)c3)c3ccsc23)ccn1` [Example 68] showed an IC50 of no more than 100 nM.

With `FC1(F)Oc2ccc(Nc3nnc(Nc4ccc5ncsc5c4)c4ccccc34)cc2O1` [Example 98], the IC50 was no more than 100 nM.

As to `CNC(=O)c1cc(COc2nnc(Nc3ccc(O)cc3)c3ccoc23)ccn1` [Example 57], the IC50 was no more than 100 nM.

The compound `Brc1ccc2c(c1)CCN2c1nnc(OCc2ccncc2)c2occc12` [Example 19, 4-(5-bromoindolin-1-yl)-7-(4-pyridylmethoxy)furo[2,3-d]pyridazine] yielded an IC50 of no more than 100 nM.

`COc1cc(Nc2nnc(Nc3ccc4ncsc4c3)c3sccc23)cc(OC)c1OC` [Example 80] returned an IC50 greater than 1000 nM.

As to `CNC(=O)c1cc(COc2nnc(Nc3ccc4c(c3)CCC4)c3ccsc23)ccn1` [Example 73], the half-maximal inhibitory concentration (IC50) is no more than 100 nM.

For `CNC(=O)c1cc(COc2nnc(Nc3ccc(OC(F)(F)F)cc3)c3ccoc23)ccn1` [Example 43], the half-inhibitory concentration (IC50) was no more than 100 nM.

For the compound `c1ccc2c(Nc3ccc4nn[nH]c4c3)nnc(Nc3ccc4nn[nH]c4c3)c2c1` [Example 94], the IC50 was greater than 1000 nM.

The compound `Clc1ccc(Nc2nnc(Nc3ccc4ncsc4c3)c3sccc23)cc1` [Example 17, 4-(4-chlorophenylamino)-7-(benzothiazol-6-ylamino)thieno[2,3-d]pyridazine] came in with an IC50 of no more than 100 nM.

Turning to `CNC(=O)c1cc(COc2nnc(Nc3ccc(N(C)C)cc3)c3ccoc23)ccn1` [Example 41], the IC50 is greater than 1000 nM.

As a reminder, the IC50 is the midpoint of a concentration-inhibition curve.
